Tests used:
IL-8 = IL-8 expression in UV-irradiated HaCaT cells (real time PCR); assay type: cell-based, human; details: 10 uM, 24 h after UV, normalized to GAPDH
Protocol: (§1) HaCaT cells—a human immortalized keratinocyte cell line—were exposed to 15 J/m^2 UVB (254 nm) irradiation. Twenty four hours after irradiation, the cells were harvested and RNA isolated to assess the expression of LXR-alpha, LXR-beta, ABCA1, TNF-alpha, IL-6, and IL-8 genes. HaCaT cells were cultured in DMEM supplemented with 10% (v/v) fetal bovine serum, penicillin (100 U/mL), streptomycin ([…]) and glutamine (2 mM). […] The expressions of ABCA1, TNF-alpha, IL-6, IL-8, LXR-alpha, and LXR-beta were normalized according to glyceraldehyde-3-phosphate dehydrogenase (GAPDH) expression. The results of three independent assays, carried out in duplicate for each condition, are reported.

LXR-beta = LXR-beta expression in UV-irradiated HaCaT cells (real time PCR); assay type: cell-based, human; details: 10 uM, 24 h after UV, vs. DMSO (UV, 24 h) and GW3965 (UV, 24 h)
Protocol: as §1

[1] = system: fatty acid synthase (FAS); experiment: FAS expression in HL-60 cells (real time PCR); assay type: cell-based, human; details: 10 uM, 6 h
Protocol: To investigate the effects of Compounds I and II on the expression of three genes involved in lipid metabolism [fatty acid synthase (FAS); and two ATP-dependent cholesterol and phospholipid transporters, such as ABCA1 and ABCG1], human promyelocytic leukemia cells (HL-60) that endogenously express LXR-alpha and LXR-beta were incubated in the presence of either Comp I or Comp II (10 uM), or GW3965 (1 uM) for 6 h. mRNA levels for FAS, ABCA1 and ABCG1 were determined by real time PCR and results were normalized to GAPDH expression. HL-60 (10^6 cells/well) were cultured in RPMI medium supplemented with 5% (v/v) fetal bovine serum, penicillin (100 IU/mL), streptomycin (100 ug/mL) y cyprofloxacin (0.4 ug/mL). […] To obtain RNA, at the end of the incubation the cells were collected by centrifugation at 1,000 rpm for 2 min, washed with phosphate buffered saline, and lysed in 300 ul TRIZOL (Invitrogen). RNA samples were suspended in […] of RNAse free water, and their concentration determined (NanoDrop spectrophotometer). […] To obtain cDNA, 1 ug of total RNA was denatured by incubating for 5 min at 70° C., before the addition of a mixture containing 0.5 ug oligo-dT primers and 25 ng/ml of random primers (Invitrogen), 1.0 mM dNTPs (Invitrogen), and 200 U M-MLV reverse transcriptase (Promega); after this the mixture was retrotranscribed at 37° C. for 60 min, followed by an incubation at 95° C. for 5 min to inactivate the enzyme. For the real time PCR amplification (Stratagene Thermal Cycler), cDNA samples were diluted 1/5 to 1/10 depending on the target amplification product. Calibration curves were obtained by use of eight successive 1:2 sample dilutions. Amplifications were carried out in a 25 ul final volume (5 ul cDNA sample plus 20 ul of reaction mixture) in the presence of either 3, 4 or 5 mM MgCl2 (depending on the amplified sequence), 0.25 mM dNTPs (Invitrogen), 1.25 U Taq polymerase (Invitrogen), 1 μM of the specific primers according to the target amplification sequence, and 0.025 μl SYBR Green (Roche). […]

[2] = Plasma total cholesterol, HDL-cholesterol and triglyceride in C57BI mice after 5 days i.p. treatment; assay type: in vivo; details: male C57BI mice; Compound I 10 mg/kg i.p. daily for 5 days
Protocol: Administration of synthetic LXR agonists such as T0901317 induces a marked increment of liver lipogenesis that leads to hepatic steatosis and plasma hypertriglyceridemia.
Male C57BI mice received daily for 5 days intraperitoneal injections containing either 10 mg Compound I/kg, or 5 mg T0901317/kg, or vehicle [90% (v/v) DMSO in apyrogenic sterile water]. On the sixth day of the assay, the animals were fasted for 4 h before decapitation. Blood plasma was obtained for the determination of total cholesterol, HDL-cholesterol and triglyceride contents. The livers were resected, and their weights and colors used as gross markers of increased liver triglyceride contents.

SMILES	IL-8 expression versus DMSO-treated cells (IL-8)	LXR-beta expression (LXR-beta)	FAS mRNA lower than in vehicle-treated cells [1]	hypertriglyceridemia [2]
CC[C@@H](C(C)C)[C@H](O)[C@@H](O)[C@@H](C)[C@H]1CC[C@H]2[C@@H]3CCC4=CC(=O)CC[C@]4(C)[C@H]3CC[C@]12C [Compound I, (22S,23S)-22,23-dihydroxystigmast-4-en-3-one]	significantly lower	stimulated LXR-beta expression even further	~40%	no signs
CC[C@@H](C(C)C)[C@H](O)[C@@H](O)[C@@H](C)[C@H]1CC[C@H]2[C@@H]3CCC4=CC(=O)C=C[C@]4(C)[C@H]3CC[C@]12C [Compound II, (22S,23S)-22,23-dihydroxystigmasta-1,4-dien-3-one]	significantly lower	more modest than that observed for Compound I	~40%	

Reference: patent publication US20190365784A1, “USE OF BRASSINOSTEROID ANALOGS FOR THE TREATMENT OF DERMAL DISORDERS BY SELECTIVELY MODULATING LIVER X RECEPTORS (LXR) AND DERMAL DISEASE TREATMENT BY BRASSINOSTEROID ANALOGS ACTING AS SELECTIVE LIVER X RECEPTOR (LXR) MODULATORS” (CONSEJO NACIONAL DE INVESTIGACIONES CIENTÍFICAS Y TÉCNICAS …, priority 2015, published 2019)
